Conditions: Liquid, Vibrating tube method

CCCCCCCCCC [decane]
mass density [kg/m3]
Conditions	313.07 K	323 K	332.87 K	342.78 K	352.8 K	362.73 K
1000 kPa	715.64	707.96	700.33	692.65	–	–
2000 kPa	716.68	708.93	701.26	693.68	686.08	678.44
3000 kPa	717.38	709.81	702.21	694.72	687.17	679.58
4000 kPa	718.16	710.88	703.17	695.7	688.23	680.71
5000 kPa	719.02	711.52	704.12	696.68	689.3	681.85
6000 kPa	719.65	712.48	705.07	697.68	690.33	682.98
7000 kPa	720.52	713.3	705.98	698.61	691.38	684.09
8000 kPa	721.28	714.23	706.88	699.57	692.38	685.16
9000 kPa	722.11	715.05	707.79	700.54	693.41	686.25
10000 kPa	723.13	715.91	708.65	701.49	694.37	687.29
11000 kPa	723.65	716.74	709.52	702.4	695.36	688.32
12000 kPa	724.48	717.54	710.39	703.29	696.32	689.33
13000 kPa	725.48	718.35	711.26	704.14	697.29	690.34
14000 kPa	726.15	719.15	712.07	705.05	698.22	691.28
15000 kPa	726.86	719.92	712.9	705.93	699.15	692.36
16000 kPa	727.49	720.7	713.71	706.79	700.03	–
17000 kPa	728.18	721.46	714.52	707.6	700.94	–
18000 kPa	729.07	722.22	715.32	–	701.82	–
18010 kPa	–	–	–	708.57	–	–
19000 kPa	729.72	722.97	716.1	709.45	702.71	–
20000 kPa	730.26	723.71	716.88	710.3	703.59	–
21000 kPa	731.22	724.45	717.65	710.91	704.44	–
22000 kPa	731.8	725.18	718.43	711.92	705.25	–
23000 kPa	732.7	725.92	719.19	712.48	706.14	–
24000 kPa	733.26	726.62	719.99	713.42	706.95	–
25000 kPa	733.93	727.42	720.76	714.1	707.83	–
